For orientation: LC50 means the concentration lethal to half of the exposed cells or organisms. Lower therefore signals a more lethal substance.

≈ marks a conversion by molar mass, not a printed value.

In one data set the test system is Aedes aegypti. Put plainly: Insecticidal activity against yellow fever mosquito larvae. In kind it is functional.
The next data set has as its system A549. Put plainly: Cytotoxicity against human A549 cells after 7 days by MTT assay. In kind it is functional. As to conditions: A549, 168 h, read-out: ED50 (the source's name). (In general: Tetrazolium assays rely on reduction of a dye to a coloured formazan, in cell work by metabolically active cells.)
A short description of data set [1]: Toxicity in Artemia salina. In kind it is organism-based. As to conditions: in vivo.
For a further data set, the system named is MCF7. Briefly: Cytotoxicity against human MCF7 cells after 7 days by MTT assay. The format is functional. As to conditions: MCF7, 168 h, read-out: ED50 (the source's name).
The next data set concerns HT-29. Put plainly: Cytotoxicity against human HT-29 cells after 7 days by MTT assay. In kind it is functional. As to conditions: HT-29, 168 h, read-out: ED50 (the source's name).

In the case of `CC(C)c1cc2c(cc1O)[C@@]1(C)CCCC(C)(C)[C@@H]1CC2` [FERRUGINOL], the LC50 in the data set with Aedes aegypti turned out to be 3 µg/mL (≈ 10.5 µM); in data set [1], 42.3 µg/mL (≈ 148 µM). The EC50 in the data set on A549 came to 6.47 µg/mL (≈ 22.6 µM); with MCF7, 23.4 µg/mL (≈ 81.8 µM); with HT-29, 6.43 µg/mL (≈ 22.4 µM).
Turning to `COc1cccc2c1C(=O)c1c(O)c3c(c(O)c1C2=O)C[C@@](O)(C(=O)CO)C[C@@H]3O[C@H]1C[C@H](N)[C@H](O)[C@H](C)O1` [DOXORUBICIN], the EC50 with A549 worked out at 0.00499 µg/mL (≈ 0.00918 µM); with MCF7, 0.189 µg/mL (≈ 0.348 µM); in the data set on HT-29 it was 0.0357 µg/mL (≈ 0.0657 µM).
In the case of `CC1=C[C@H]2[C@@H](C(C)C)CC[C@@](C)(O)[C@H]2CC1=O`, the figures for the LC50 (with Aedes aegypti; in data set [1]) were 200 µg/mL (≈ 846 µM) and 54.4 µg/mL (≈ 230 µM), respectively. The EC50 in the data set with A549 turned out to be 8.78 µg/mL (≈ 37.1 µM); in the data set on MCF7 it was 12.9 µg/mL (≈ 54.5 µM); in the data set with HT-29 it was 7.85 µg/mL (≈ 33.2 µM).
Turning to `CC1=C[C@@H]2[C@@H](CC1)[C@](C)(O)CC[C@H]2C(C)C`, the LC50 in the data set with Aedes aegypti was 2 µg/mL (≈ 8.99 µM); in data set [1], 9.4 µg/mL (≈ 42.3 µM). Besides, the EC50 in the data set with A549 came out at 11.1 µg/mL (≈ 49.9 µM); with MCF7, 13.1 µg/mL (≈ 58.7 µM); in the data set with HT-29, 0.778 µg/mL (≈ 3.5 µM).
Take `CC1=C[C@@H]2[C@@H](CC1=O)[C@](C)(O)CC[C@H]2C(C)C`: the median lethal concentration (LC50) in the data set with Aedes aegypti was 50 µg/mL (≈ 212 µM); in data set [1], 200 µg/mL (≈ 846 µM). Also, the EC50 came to 32.2 µg/mL (≈ 136 µM) in the data set with A549, 30.1 µg/mL (≈ 127 µM) in the data set on MCF7 and 32.5 µg/mL (≈ 138 µM) in the data set with HT-29.
On to `CC(C)[C@@H]1CC[C@@](C)(O)[C@]2(O)[C@@H](O)C[C@@H](C)C[C@@H]12`, for which the LC50 in the data set on Aedes aegypti is over 250 µg/mL; in data set [1] it was 84.8 µg/mL (≈ 331 µM). Moreover, the figures for the EC50 in the data set with A549, with MCF7 and in the data set on HT-29 were 13.3 µg/mL (≈ 52 µM), 41 µg/mL (≈ 160 µM) and 12 µg/mL (≈ 46.8 µM), respectively.
Take `O=C1OCc2c1cc1ccc3c(c1c2-c1ccc2c(c1)OCO2)OCO3` [HELIOXANTHIN]: the LC50 is 3 µg/mL (≈ 8.61 µM) in the data set with Aedes aegypti and over 500 µg/mL in data set [1].

For the origin of these results see ChEMBL document CHEMBL1145682, “Bioactive compounds from Taiwania cryptomerioides” (J Nat Prod, 1997).
